Experimental data reported in publication PMC6270836, “Carapanolides J–L from the Seeds of Carapa guianensis (Andiroba) and Their Effects on LPS-Activated NO Production” (Molecules, 2014).
Values joined by “and” are separate entries in the source; they are usually repeats but may differ in a detail not shown here. Equal entries are not always repeated. “Also recorded” adds a separate entry of the source. Where two headings read alike, the source gives them in different places. Blank lines part the entries; values can stand above or below the compound they belong to.

What was measured:
RAW264.7 cells = assay: RAW264.7 cell proliferation / cytotoxicity by MTT assay; conditions: 3–100 μM, MTT assay
Procedure: (§1) Physiological nitric oxide (NO) is involved in blood pressure regulation and blood flow distribution, whereas its overexpression may induce tissue injury, multiple organ dysfunction, and death, as well as systemic inflammatory responses in sepsis, such as hypotension, cardiodepression, and vascular hyporeactivity. In the present study, four limonoids and L-NMMA, an inducible nitric oxide synthase (iNOS) inhibitor, were evaluated for their inhibitory effects on NO production in LPS-stimulated RAW264.7 cells (Table 3). To determine safe concentrations, the cytotoxicities of these limonoids against RAW 264.7 were assessed by the MTT assay.
(§2) RAW264.7 cell proliferation was examined according to a method reported previously with some modifications. Briefly, RAW264.7 cells (5 × 10^4 cells in 100 μL) were seeded onto 96-well microplates, and incubated for 24 h. D-MEM (100 μL) containing test samples (final concentration of 100, 30, 10, or 3 μM) dissolved in DMSO (final concentration 0.2%) was added. […] After 3 h of incubation, 20% sodium dodecyl sulfate (SDS) in 0.1 M HCl was added to dissolve the formazan produced by the cells. The absorbance of each well was read at 570 nm using a microplate reader. The optical density of vehicle control cells was assumed to be 100%.

[1] = as above; conditions: mouse
Procedure: as §1, §2

[2] = system: NO production in LPS-stimulated RAW264.7 cells; assay: Inhibitory assay of NO production in LPS-stimulated RAW264.7 cells; type: cell-based, mouse; conditions: for Produced NO (%): LPS 5 μg/mL, DMSO control = 100%, mean ± S.E., n=3; for IC50: Mus musculus, read-out: IC50 (μM), produced NO
Procedure: as §1
An inhibitory assay of nitric oxide production was performed according to a method reported previously with slight modifications. Briefly, RAW264.7 cells (5 × 10^4 cells in 100 μL) were seeded onto 96-well microplates, and incubated for 24h. D-MEM (100 μL) containing test samples (final concentration of 100, 30, 10, or 3 μM) dissolved in DMSO (final concentration 0.2%) and LPS (final concentration of 5 μg/mL) were added. […] After being incubated for 30 min, the absorbance of each well was read at 570 nm using a microplate reader. The optical density of vehicle control cells was assumed to be 100%.

[3] = LPS-stimulated RAW264.7 cells, 24 h

Compound: CC1(C)C(=O)C=CC2(C)C1CC(=O)C1(C)C2C(O)CC2(C)C(c3ccoc3)OC(=O)C3OC321 (stereo not drawn) [Compound 1, 11α-hydroxy-7-deacetoxy-7-oxogedunin]
- Cytotoxicity against RAW 264.7 (in words) (RAW264.7 cells): non-toxicities; also recorded: no cytotoxicity
- IC50 at 24 h ([1]; RAW264.7 cells): > 100 µM
- viability at 24 h, 3 µM ([1]; RAW264.7 cells): 102.4 ± 0.8%
- viability at 24 h, 10 µM ([1]; RAW264.7 cells): 101 ± 1.7%
- viability at 24 h, 30 µM ([1]; RAW264.7 cells): 102.8 ± 0.6%
- viability at 24 h, 100 µM ([1]; RAW264.7 cells): 103 ± 1.8%
- Produced NO (%) ([2]; 3 μM, 24 h): 92.1 ± 1.5%
- Produced NO (%) ([2]; 10 μM, 24 h): 83.4% and 83.4 ± 3.1%
- Produced NO (%) ([2]; 30 μM, 24 h): 61.8% and 61.8 ± 1.8%
- Produced NO (%) ([2]; 100 μM, 24 h): 16.8% and 16.8 ± 0.0%
- IC50 [2, 3]: 37.4 µM

- IC50 [2, 3]: 12 µM
Compound: C/C=C(\C)C(=O)OC1C2(C)CC3(O)C(C)(C4CCC5(C)C(=C4C(OC(=O)C(C)CC)C13O)C(OC(C)=O)C(=O)OC5c1ccoc1)C2CC(=O)OC (centres unmarked) [Compound 2, carapanolide K]
- IC50 at 24 h ([1]; RAW264.7 cells): 15.2 µM
- viability at 24 h, 3 µM ([1]; RAW264.7 cells): 81.4 ± 0.8%
- viability at 24 h, 10 µM ([1]; RAW264.7 cells): 65.6 ± 0.2%
- viability at 24 h, 30 µM ([1]; RAW264.7 cells): 33.6 ± 6.3%
- viability at 24 h, 100 µM ([1]; RAW264.7 cells): 0.4 ± 0.4%
- Produced NO (%) ([2]; 3 μM, 24 h): 78.6 ± 1.9%
- Produced NO (%) ([2]; 10 μM, 24 h): 58.3 ± 2.8%
- Produced NO (%) ([2]; 30 μM, 24 h): 25.8 ± 7.0%
- Produced NO (%) ([2]; 100 μM, 24 h): 7.1 ± 1.2%

Compound: CCC(=O)OC1C2(O)C(OC(C)=O)C3(C)CC24OC2(C)OC15C1CC(=O)OC(c6ccoc6)C1(C)CCC5(O2)C41COC(=O)CC31 (centres unmarked) [Compound 3, carapanolide L]
- Cytotoxicity against RAW 264.7 (in words) (RAW264.7 cells): non-toxicities
- IC50 at 24 h ([1]; RAW264.7 cells): > 100 µM
- viability at 24 h, 3 µM ([1]; RAW264.7 cells): 97.6 ± 0.6%
- viability at 24 h, 10 µM ([1]; RAW264.7 cells): 97.3 ± 1.3%
- viability at 24 h, 30 µM ([1]; RAW264.7 cells): 100.5 ± 0.4%
- viability at 24 h, 100 µM ([1]; RAW264.7 cells): 94.4 ± 1%
- Produced NO (%) ([2]; 3 μM, 24 h): 95.6 ± 2.5%
- Produced NO (%) ([2]; 10 μM, 24 h): 95.4 ± 1.2%
- Produced NO (%) ([2]; 30 μM, 24 h): 95.4 ± 2.9%
- Produced NO (%) ([2]; 100 μM, 24 h): 78.4 ± 2.3%
- IC50 ([2]; RAW264.7, 24 h): > 100 µM

Compound: CC(=O)O[C@@H]1C[C@H]2C(C)(C)C(=O)C=C[C@]2(C)[C@H]2CC[C@@]3(C)[C@H](c4ccoc4)C(=O)[C@H]4O[C@]43[C@@]21C [Compound 4, epoxyazadiradione]
- Cytotoxicity against RAW 264.7 (in words) (RAW264.7 cells): moderate cytotoxicities
- IC50 at 24 h [1]: 21.3 µM
- viability at 24 h, 3 µM [1]: 93.6 ± 1.4%
- viability at 24 h, 10 µM [1]: 99.7 ± 0.8%
- viability at 24 h, 30 µM [1]: 6.8 ± 0.3%
- viability at 24 h, 100 µM [1]: 3.3 ± 0.3%
- Produced NO (%) ([2]; 3 μM, 24 h): 74.0% and 74.0 ± 5.0%
- Produced NO (%) ([2]; 10 μM, 24 h): 30.0% and 30.0 ± 2.3%
- Produced NO (%) ([2]; 30 μM, 24 h): 7.5 ± 1.0%
- Produced NO (%) ([2]; 100 μM, 24 h): 3.9 ± 1.8%
- IC50 [2, 3]: 5.9 µM

- IC50 [2, 3]: 53.7 µM
Compound: [H]/N=C(/NC)NCCC[C@H](N)C(=O)O [L-NMMA, reference compound]
- IC50 at 24 h ([1]; RAW264.7 cells): > 100 µM
- viability at 24 h, 3 µM ([1]; RAW264.7 cells): 103.5 ± 0.5%
- viability at 24 h, 10 µM ([1]; RAW264.7 cells): 102 ± 1.5%
- viability at 24 h, 30 µM ([1]; RAW264.7 cells): 94.1 ± 1.4%
- viability at 24 h, 100 µM ([1]; RAW264.7 cells): 96.5 ± 2.5%
- Produced NO (%) ([2]; 3 μM, 24 h): 93.0 ± 3.3%
- Produced NO (%) ([2]; 10 μM, 24 h): 79.3% and 79.3 ± 0.8%
- Produced NO (%) ([2]; 30 μM, 24 h): 58.2% and 58.2 ± 2.4%
- Produced NO (%) ([2]; 100 μM, 24 h): 39.9% and 39.9 ± 1.7%
